Laboratory results reported in patent US20250108036A1, “COMPOSITIONS FOR REMOVING SENESCENT CELLS AND USES THEREOF” (LIFECEUTIX CO., LTD., priority 2021, published 2025).
pKd: −log10 of the molar value.

How the values were obtained:
HMGB1 = HMGB1 ELISA in culture medium of senescent foreskin cells (Example 10, Table 62); format: cell-based, human
Description: After 6 hours, the amounts of HMGB1 and HMGN1 secreted into the cell culture medium were measured using an enzyme-linked immunosorbent assay (ELISA Kit, purchased from AssayGenie).

HMGN1 [1] = experiment: HMGN1 ELISA in culture medium of foreskin cells (Examples 10, 11; Tables 62, 63, 64); format: cell-based, human; conditions: for activity at 30 µM: Homo sapiens, 30 μM test compound, doxorubicin-treated foreskin cells, DMSO = 100, read-out: HMGN1
[2] = system: foreskin cells in which aging was induced by doxorubicin; experiment: cell viability of senescent foreskin cells with caspase inhibitor QVD-Oph (Example 10, Table 61); format: cell-based, human; conditions: ABT-263 1 μM; for Survial (%): doxorubicin-senescent foreskin cells, 3 days
[3] = system: normally proliferating foreskin cells; experiment: survival of normally proliferating foreskin cells treated with medium supernatant (secreted fluid) of compound-killed cells (Example 13, Table 68); format: cell-based, human; conditions: after 3 days
Description: After treating cells with the test compound at a high concentration that induces the death of most cells in both non-senescence-induced and senescence-induced cells, the cells were washed three times with PBS to remove the test compound, and replaced with fresh medium and cultured for an additional 3 hours at the time when the compound has entered into the cell but has not yet induced cell death (approximately 1 to 3 hours after compound treatment). During this additional culture, by checking with an optical microscope, etc., the medium supernatants containing secreted fluid from normally proliferating and senescent cells in which cell death was induced were obtained. The obtained medium supernatant was replaced with the medium of normally proliferating and senescent cells, respectively, and cell survival rate was measured after 3 days.

[4] = system: foreskin cells in which senescence was not induced; experiment: CellTiter-Glo growth of foreskin cells in which senescence was not induced (Tables 5, 12); conditions: 30 μM, 3 days
Description: (§1) After 3 days, cell viability was measured using CellTiter-Glo Luminescent Cell Viability Assay (Promega) or light microscopy.

[5] = system: foreskin cells in which senescence was induced by doxorubicin; experiment: CellTiter-Glo cell viability of doxorubicin-induced senescent foreskin cells (Examples 1-2, 10, 11, 13; Tables 4, 63, 65); format: cell-based, human; conditions: for cell death, senescent cells: 30 μM, 3 days; for viability at 1.1 µM: 1.1 μM test compound; for viability at 10 µM: 10 μM test compound; for viability at […]: […] test compound
Description: as §1

HMGN1 [6] = experiment: HMGN1 ELISA in culture medium of A549 cancer cells (Example 12, Table 66); format: cell-based, human; conditions: Homo sapiens, A549, doxorubicin-induced senescent A549 cells, test compound 30 μM, ELISA, DMSO = 100; read-out: HMGN1 (amount of HMGN1 secreted in the cell culture)
A549 = experiment: CellTiter-Glo cell viability of senescent A549 cancer cells (Example 12, Table 67); format: cell-based, human; conditions: Homo sapiens, A549, doxorubicin-induced senescent A549 cancer cells, CellTiter-Glo, read-out: Survival (%); for viability at 1.1 µM: 1.1 μM test compound
senescent foreskin cells = experiment: survival of senescent foreskin cells treated with medium supernatant (secreted fluid) of compound-killed cells (Example 13, Tables 68, 69); format: cell-based, human; conditions: supernatant-treated cells: senescent cells, after 3 days
Description: as §1

[7] = read-out: MST Kd; cited from earlier work
[8] = 1 μM, culture medium after 6 hours, senescent foreskin cells
[9] = ABT-263 1 μM or LX-112 10 μM, 6 hours
[10] = supernatant from compound-treated medium without cells (No Cells)
[11] = supernatant from death-induced proliferating foreskin cells (compound 30 μM)
[12] = supernatant from death-induced senescent foreskin cells (compound 30 μM)
[13] = Homo sapiens, 72 h, doxorubicin-induced senescent foreskin cells, CellTiter-Glo, 0 μM = 100, read-out: Survival (%)

In the case of `CC1(C)CCC(c2ccc(Cl)cc2)=C(CN2CCN(c3ccc(C(=O)NS(=O)(=O)c4ccc(N[C@H](CCN5CCOCC5)CSc5ccccc5)c(S(=O)(=O)C(F)(F)F)c4)cc3)CC2)C1` [ABT-263, reference compound], the “HMGB1 (pg/ml)” value (HMGB1; [8]) was 462.7 (±21.6) pg/ml, the “HMGB1 secreted in the culture medium from dying senescent cells” value (HMGB1; [9]) was “little change” and the “HMGN1 (pg/ml)” value (HMGN1 [1]; [8]) was 105.3 (±13.5) pg/ml. For the same molecule, the “HMGN1 secreted in the culture medium from dying senescent cells” value (HMGN1 [1]; [9]) was “no significant change”, the “Survial (%)” value ([2]; QVD-Oph 20 μM applied 4 hours before) was 98.4 (±2.6) % and the “Survial (%)” value ([2]; without QVD-Oph) was 23.8 (±5.5) %. The “inhibition of the death of senescent cells by the caspase inhibitor” value ([2]; QVD-Oph 20 μM, LX-112 10 μM) was “completely inhibited”.

For `Cc1onc(C(=O)N2CCN(C(c3ccc(Cl)cc3)c3ccc(Cl)cc3)CC2)c1N(O)O` [LX-401], the “Survival (%)” value [3, 10] was 97.9 (±7.2) %, the “Survival (%)” value [3, 11] was 88.1 (±4.2) % and the “Survival (%)” value [3, 12] was 95.1 (±5.7) %. The “cell death, normally proliferating cells” value [4] was “induced the death of most cells”, the “cell death, senescent cells” value [5] was “induced the death of most cells” and the viability at 1.1 µM [5, 13] was 20.4%. The viability at 10 µM [5, 13] was 10.6%, the viability at 30 µM ([5]; Homo sapiens, 72 h, 30 μM test compound, doxorubicin-induced senescent foreskin cells, CellTiter-Glo, 0 μM = 100, read-out: Survival (%)) was 7.8% and the viability at […] [5, 13] was 12.4%. It also gave an activity at 30 µM (HMGN1 [6]) of 277%, a viability at 1.1 µM (A549) of 89.7% and a viability at 10 µM (A549; 10 μM test compound) of 42.1%. For the same molecule, the viability at 30 µM (A549; 30 μM test compound) was 16.8%, the activity at 30 µM (HMGN1 [1]) was 263% and the “Survival (%)” value (senescent foreskin cells; [10]) was 101.1 (±5.5) %. The “Survival (%)” value (senescent foreskin cells; [11]) was 48.2 (±4.2) % and the “Survival (%)” value (senescent foreskin cells; [12]) was 42.2 (±4)^ %.

With `COc1ccc(N(C(=O)CCl)C(C(=O)NCCc2ccccc2)c2cccs2)cc1Cl` (stereo not shown) [LX-402] the “Survival (%)” value [3, 10] was 97.1 (±5.9) %, the “Survival (%)” value [3, 11] was 78.1 (±3.8) % and the “Survival (%)” value [3, 12] was 101.1 (±2.2) %. The “cell death, normally proliferating cells” value [4] was “induced the death of most cells”, the “cell death, senescent cells” value [5] was “induced the death of most cells” and the viability at 1.1 µM [5, 13] was 67.2%. It also gave a viability at 10 µM [5, 13] of 4.5%, a viability at […] [5, 13] of 27% and an activity at 30 µM (HMGN1 [6]) of 340%. For the same molecule, the viability at 1.1 µM (A549) was 71.6%, the activity at 30 µM (HMGN1 [1]) was 298% and the “Survival (%)” value (senescent foreskin cells; [10]) was 98 (±3.6) %. For the same molecule, the “Survival (%)” value (senescent foreskin cells; [11]) was 31 (±1.2) % and the “Survival (%)” value (senescent foreskin cells; [12]) was 48.3 (±2.1) %.

Work on `CC(C)(C)OC(=O)CCCN1C(=O)c2ccccc2C1=O` [LX-407] yielded a viability at 1.1 µM [5, 13] of 15.9%, an activity at 30 µM (HMGN1 [6]) of 339% and a viability at 1.1 µM (A549) of 29.4%. The activity at 30 µM (HMGN1 [1]) was 299% and the pKd [7] was 6.40.

For `CC(C)(C)OC(=O)CCN1C(=O)c2ccccc2C1=O` [QW-011], the pKd [7] is given as 6.03.

For `CC(C)(C)OC(=O)C(C)(C)N1C(=O)c2ccccc2C1=O` [QW-020], the pKd [7] is listed as 5.67.

In the case of `CC(C(=O)OC(C)(C)C)N1C(=O)c2ccccc2C1=O` (stereo not shown) [QW-023], the pKd [7] is given as 5.75.

In the case of `CC(C)(C)OC(=O)CCCCCN1C(=O)c2ccccc2C1=O` [QW-029], the pKd [7] is listed as 5.68.

In the case of `CC(C)(C)OC(=O)C(N1C(=O)c2ccccc2C1=O)C(C)(C)C` (stereo not shown) [QW-034], the pKd [7] is given as 6.01.

For `CCC(C)C(C(=O)OC(C)(C)C)N1C(=O)c2ccccc2C1=O` (stereo not shown) [QW-050], the pKd [7] is listed as 5.61.
